Tests used:
Type in all cases: cell-based
[1] = biological target: T1, hNPY2R (Homo sapiens, UniProt P49146); test: CaFlux Assay (FLIPR), Y2R; set-up: expressed in transfected cells; host or cells: HEK-293 stably transfected with G protein chimera Gαqi9
T1 sequence (P49146 1-381): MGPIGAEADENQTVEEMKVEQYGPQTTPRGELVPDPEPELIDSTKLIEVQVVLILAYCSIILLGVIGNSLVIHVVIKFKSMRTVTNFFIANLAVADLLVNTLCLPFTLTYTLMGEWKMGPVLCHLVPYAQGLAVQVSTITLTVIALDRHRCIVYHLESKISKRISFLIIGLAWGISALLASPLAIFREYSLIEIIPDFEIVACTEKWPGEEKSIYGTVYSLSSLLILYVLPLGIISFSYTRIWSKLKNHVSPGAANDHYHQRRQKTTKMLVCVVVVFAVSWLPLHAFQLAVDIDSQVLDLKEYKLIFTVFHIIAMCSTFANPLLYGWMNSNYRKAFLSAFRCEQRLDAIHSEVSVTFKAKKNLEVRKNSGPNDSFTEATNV
Experimental: HEK-293 cells were stably transfected with the G protein chimera Gαqi9 and the hygromycin-B resistance gene were further transfected with the human NPY2 receptor and G418 antibiotic selection. Following selection in both hygromycin-B and G418, individual clones were assayed for their response to PYY. The transfected cells were cultured in DMEM medium supplemented with 10% fetal bovine serum, 50 μg/mL hygromycin-B, 2 mM glutamine, 100 U/mL penicillin, 100 μg/mL streptomycin and 250 μg/mL G418. Cells are harvested with trypsin-EDTA and counted using ViaCount reagent. The cell suspension volume is adjusted to 4.8×10^5 cells/mL with complete growth media. Aliquots of 25 μL are dispensed into 384 well Poly-D Lysine coated black/clear microplates (Falcon) and the microplates were placed in a 37° C. CO2 incubator overnight. Loading Buffer (Calcium-3 Assay Kit, Molecular Devices) was prepared by dissolving the contents of one vial (Express Kit) into […] Hank's Balanced Salt Solution containing 20 mM HEPES and 5 mM probenecid. Aliquots of 25 μL of diluted dye were dispensed into the cell plates and the plates are then incubated for 1 hour at 37° C. During the incubation, test compounds were prepared at 3.5× the desired concentration in HBSS (20 mM HEPES)/0.05% BSA/1% DMSO and transferred to a 384-well plate for use on FLIPR. After incubation, both the cell and compound plates were brought to the FLIPR and 20 μL of the diluted compounds were transferred to the cell plates by the FLIPR. During the assay, fluorescence readings were taken simultaneously from all 384 wells of the cell plate every 1.5 seconds. Five readings were taken to establish a stable baseline, and then 20 μL of sample was rapidly (30 μL/sec) and simultaneously added to each well of the cell plate. The fluorescence was continuously monitored before, during and after sample addition for a total elapsed time of 100 seconds. Responses (increase in peak fluorescence) in each well following addition were determined. The initial fluorescence reading from each well, prior to ligand stimulation, was used as a zero baseline value for the data from that well. The responses are expressed as % of maximal response of the positive control.

[2] = biological target: T2, Y1R (Homo sapiens, UniProt P25929); test: CaFlux Assay (FLIPR), Y1R
T2 sequence (P25929 1-384): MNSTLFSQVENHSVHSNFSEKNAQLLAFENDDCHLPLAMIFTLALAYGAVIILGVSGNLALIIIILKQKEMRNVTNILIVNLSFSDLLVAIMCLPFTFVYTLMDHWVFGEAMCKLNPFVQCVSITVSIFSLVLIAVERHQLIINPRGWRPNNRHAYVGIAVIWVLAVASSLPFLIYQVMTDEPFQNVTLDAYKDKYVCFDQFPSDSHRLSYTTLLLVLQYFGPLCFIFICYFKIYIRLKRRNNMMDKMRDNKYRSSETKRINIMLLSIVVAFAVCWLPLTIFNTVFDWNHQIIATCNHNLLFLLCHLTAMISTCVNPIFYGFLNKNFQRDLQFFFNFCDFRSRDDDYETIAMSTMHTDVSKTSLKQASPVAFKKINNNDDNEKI

[3] = biological target: T1, hNPY2R; test: cAMP Agonist Assay, HEK293/hNPY2R; set-up: expressed in transfected cells; host or cells: HEK293/hNPY2R (G418 selection)
Experimental: In this example, the following materials were used: 384-well plate; Tropix cAMP-Screen Kit; cAMP ELISA System (Applied Biosystems, cat. #T1505; CS 20000); Forskolin (Calbiochem cat. # 344270); cells: HEK293/hNPY2R; growth medium: Dulbecco's modified eagle medium (D-MEM, Gibco); 10% Fetal bovine serum (FBS, Gibco), heat-inactivated; 1% Penicillin/Streptomycin (Pen 10000 unit/mL: Strep […], Gibco); […] G418 (Geneticin, Gibco cat. # 11811-031); and plating medium: DMEM/F12 w/o phenol red (Gibco); 10% FBS (Gibco, cat. # 10082-147), heat-inactivated; 1% Penicillin/Streptomycin (Gibco, cat. # 15140-122); […] G418 (Geneticin, Gibco, cat. # 11811-031).
On the first day, medium was discarded, and the monolayer cells were washed with 10 mL PBS per flask (T225). After decanting with PBS, 5 mL VERSENE (Gibco, cat #1504006) was used to dislodge the cells (5 min @37 C). The flask was gently tapped and the cell suspension was pooled. Each flask was rinsed with 10 mL plating medium and centrifuged at 1000 rpm for 5 min. The suspension was pooled and counted. The suspension was resuspended in plating medium at a density of 2.0×10^5 cells/mL for HEK293/hNPY2R. 50 microliters of cells (HEK293/hNPY2R-10,000 cells/well) were transferred into the 384-well plate using Multi-drop dispenser. The plates were incubated at 37° C. overnight. On the second day, the cells were checked for 75-85% confluence. The media and reagents were allowed to come to room temperature. Before the dilutions were prepared, the stock solution of stimulating compound in dimethyl sulphoxide (DMSO, Sigma, cat #D2650) was allowed to warm up to 32 C for 5-10 min. The dilutions were prepared in DMEM/F12 with 0.5 mM 3-Isobutyl-1-methylxanthine (IBMX, Calbiochem, cat #410957) and 0.5 mg/mL BSA. The final DMSO concentration in the stimulation medium was 1.1% with Forskolin concentration of 5 μM. The cell medium was tapped off with a gentle inversion of the cell plate on a paper towel. 50 μL of stimulation medium was placed per well (each concentration done in four replicates). The plates were incubated at room temperature for 30 min, and the cells were checked under a microscope for toxicity. After 30 minutes of treatment, the stimulation media was discarded and […] of Assay Lysis Buffer (provided in the Tropix kit) was added. The plates were incubated for 45 min @ 37° C. 20 μL of the lysate was transferred from stimulation plates into the pre-coated antibody plates (384-well) from the Tropix kit. 10 μL of AP conjugate and 20 μL of anti-cAMP antibody was added. The plates were incubated at room temperature while shaking for 1 hour. The plates were then washed 5 times with Wash Buffer, 70 μL per well for each wash. The plates were tapped to dry. 30 μL/well of CSPD/Saphire-II RTU substrate/enhancer solution was added and incubated for 45 min @ RT (shake). Signal for 1 sec/well in a Luminometer. (VICTOR-V) was measured.

[4] = biological target: Y4R (Homo sapiens, UniProt P50391); test: CaFlux Assay (FLIPR), Y4R
[5] = biological target: T3, Y5R (Homo sapiens, UniProt Q15761); test: CaFlux Assay (FLIPR), Y5R
T3 sequence (Q15761 1-445): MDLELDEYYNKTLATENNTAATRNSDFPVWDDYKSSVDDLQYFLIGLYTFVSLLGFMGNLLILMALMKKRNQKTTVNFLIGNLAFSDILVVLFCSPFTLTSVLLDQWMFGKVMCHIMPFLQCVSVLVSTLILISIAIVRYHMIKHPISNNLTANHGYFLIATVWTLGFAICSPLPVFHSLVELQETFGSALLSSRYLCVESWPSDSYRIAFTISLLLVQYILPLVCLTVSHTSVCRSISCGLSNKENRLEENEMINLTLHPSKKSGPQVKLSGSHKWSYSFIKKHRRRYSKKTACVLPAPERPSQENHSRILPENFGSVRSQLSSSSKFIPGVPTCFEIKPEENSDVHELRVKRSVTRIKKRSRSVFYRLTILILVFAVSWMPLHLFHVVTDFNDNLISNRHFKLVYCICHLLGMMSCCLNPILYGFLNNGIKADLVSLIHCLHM

Sequence of Y4R (P50391 whole entry): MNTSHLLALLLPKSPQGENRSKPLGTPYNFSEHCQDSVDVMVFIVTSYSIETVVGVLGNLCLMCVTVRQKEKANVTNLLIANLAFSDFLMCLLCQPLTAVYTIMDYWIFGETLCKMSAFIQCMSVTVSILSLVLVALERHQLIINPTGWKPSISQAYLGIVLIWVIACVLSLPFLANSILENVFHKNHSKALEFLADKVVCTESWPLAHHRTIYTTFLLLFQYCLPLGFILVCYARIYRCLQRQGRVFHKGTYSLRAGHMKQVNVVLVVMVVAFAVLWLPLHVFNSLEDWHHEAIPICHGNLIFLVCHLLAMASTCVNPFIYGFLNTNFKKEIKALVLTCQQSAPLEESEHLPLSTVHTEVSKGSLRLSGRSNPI

SMILES | EC50 [1] | EC50 [2] | EC50 [3] | EC50 [4] | EC50 [5]
CCCCCCCCCCCCCCCC(=O)NCCCCCC(=O)NCCCC[C@H](NC(=O)[C@@H](NC(=O)CCOCCOCCOCCOCCOCCOCCOCCOC)[C@@H](C)CC)C(=O)N1CCN(c2ccc3ncn(CC(=O)N[C@@H](CCCNC(=N)N)C(=O)N[C@@H](Cc4c[nH]cn4)C(=O)N[C@@H](Cc4ccc(O)cc4)C(=O)N[C@@H](CC(C)C)C(=O)N[C@@H](CC(N)=O)C(=O)N[C@@H](Cc4c[nH]c5ccccc45)C(=O)N[C@H](C(=O)N[C@H](C(=O)N[C@@H](CCCNC(=N)N)C(=O)N[C@@H](CCC(N)=O)C(=O)N(C)[C@@H](CCCNC(=N)N)C(=O)N[C@@H](Cc4ccc(O)cc4)C(N)=O)[C@@H](C)O)C(C)C)c(=O)c3c2)CC1 [Example 8] | 0.033 nM | > 5000 nM | 0.17 nM | > 5000 nM | 1760 nM
CCCCCCCCCCCCCCCC(=O)NCCCCCC(=O)N[C@H](C(=O)N[C@@H](CCCCNC(=O)CCOCCOCCOCCOCCOCCOCCOCCOCCOCCOCCOCCOC)C(=O)N1CCN(c2ccc3ncn(CC(=O)N[C@@H](CCCNC(N)=O)C(=O)N[C@@H](Cc4c[nH]cn4)C(=O)N[C@@H](Cc4ccc(O)cc4)C(=O)N[C@@H](CC(C)C)C(=O)N[C@@H](CC(N)=O)C(=O)N[C@@H](Cc4c[nH]c5ccccc45)C(=O)N[C@H](C(=O)N[C@H](C(=O)N[C@@H](CCCNC(=N)N)C(=O)N[C@@H](CCC(N)=O)C(=O)N(C)[C@@H](CCCNC(=N)N)C(=O)N[C@@H](Cc4ccc(O)cc4)C(N)=O)[C@@H](C)O)C(C)C)c(=O)c3c2)CC1)[C@@H](C)CC [Example 31] | 0.111 nM | > 6000 nM | 0.37 nM | > 6000 nM | 3510 nM
CCCCCCCCCCCC(=O)NCCCCCC(=O)N[C@H](C(=O)N[C@@H](CCCCNC(=O)CCOCCOCCOCCOCCOCCOCCOCCOCCOCCOCCOCCOCCOCCOCCOCCOCCOCCOCCOCCOCCOCCOCCOCCOC)C(=O)N1CCN(c2ccc3ncn(CC(=O)N[C@@H](CCCNC(N)=O)C(=O)N[C@@H](Cc4c[nH]cn4)C(=O)N[C@@H](Cc4ccc(O)cc4)C(=O)N[C@@H](CC(C)C)C(=O)N[C@@H](CC(N)=O)C(=O)N[C@@H](Cc4c[nH]c5ccccc45)C(=O)N[C@H](C(=O)N[C@H](C(=O)N[C@@H](CCCNC(=N)N)C(=O)N[C@@H](CCC(N)=O)C(=O)N(C)[C@@H](CCCNC(=N)N)C(=O)N[C@@H](Cc4ccc(O)cc4)C(N)=O)[C@@H](C)O)C(C)C)c(=O)c3c2)CC1)[C@@H](C)CC [Example 36] | 0.388 nM | > 6000 nM | 12.7 nM | > 6000 nM | > 6000 nM
CCCCCCCCCCCCCCCCCCCC(=O)N[C@@H](CCC(=O)O)C(=O)N[C@@H](CCC(=O)O)C(=O)N[C@H](C(=O)N[C@@H](CCCCNC(=O)CCOCCOCCOCCOCCOCCOCCOCCOCCOCCOCCOCCOCCOCCOCCOCCOC)C(=O)N1CCN(c2ccc3ncn(CC(=O)N[C@@H](CCCNC(=N)N)C(=O)N[C@@H](Cc4c[nH]cn4)C(=O)N[C@@H](Cc4ccc(O)cc4)C(=O)N[C@@H](CC(C)C)C(=O)N[C@@H](CC(N)=O)C(=O)N[C@@H](Cc4c[nH]c5ccccc45)C(=O)N[C@H](C(=O)N[C@H](C(=O)N[C@@H](CCCNC(=N)N)C(=O)N[C@@H](CCC(N)=O)C(=O)N(C)[C@@H](CCCNC(=N)N)C(=O)N[C@@H](Cc4ccc(O)cc4)C(N)=O)[C@@H](C)O)C(C)C)c(=O)c3c2)CC1)[C@@H](C)CC [Example 48] | 0.388 nM | > 9000 nM | 0.52 nM | > 9000 nM | 4320 nM
CC[C@H](C)[C@H](NC(=O)CCCCCNC(=O)CCOCCOCCOCCOCCOCCOCCOCCOCCOCCOCCOCCOCCOCCOCCOCCOC)C(=O)N[C@@H](CCCCN)C(=O)N1CCN(c2ccc3ncn(CC(=O)N[C@@H](CCCNC(=N)N)C(=O)N[C@@H](Cc4c[nH]cn4)C(=O)N[C@@H](Cc4ccc(O)cc4)C(=O)N[C@@H](CC(C)C)C(=O)N[C@@H](CC(N)=O)C(=O)N[C@@H](Cc4c[nH]c5ccccc45)C(=O)N[C@H](C(=O)N[C@H](C(=O)N[C@@H](CCCNC(=N)N)C(=O)N[C@@H](CCC(N)=O)C(=O)N(C)[C@@H](CCCNC(=N)N)C(=O)N[C@@H](Cc4ccc(O)cc4)C(N)=O)[C@@H](C)O)C(C)C)c(=O)c3c2)CC1 [Example 19] | 0.424 nM | > 6000 nM | 0.26 nM | > 6000 nM | > 6000 nM

From patent publication US20110172147A1, “NEUROPEPTIDE-2 RECEPTOR (Y-2R) AGONISTS” (priority 2009, published 2011)
